# Measurements as given in patent publication US20100041892A1, “Therapeutic agent for diabetes” (priority 2005, published 2010).
# System: not given
# Assay: not given
# Settings: not given
row,SMILES,melting point [°C]
1,"CCCCCS(=O)(=O)NC(=O)/C=C/c1ccc(OCCCOCC2CC2)cc1Oc1ncc(C(F)(F)F)cc1Cl [Example 259, (2E)-3-{2-{[3-chloro-5-(trifluoromethyl)pyridin-2-yl]oxy}-4-[3-(cyclopropylmethoxy)propoxy]phenyl}-N-(pentylsulfonyl)acrylamide]",124 to 125
2,"CCCCCS(=O)(=O)NC(=O)/C=C/c1ccc(OCC(C)=O)cc1Oc1ncc(C(F)(F)F)cc1Cl [Example 452, (2E)-3-[2-{[3-chloro-5-(trifluoromethyl)pyridin-2-yl]oxy}-4-(2-oxopropoxy)phenyl]-N-(pentylsulfonyl)acrylamide]",187 to 188
3,"CCCCCS(=O)(=O)NC(=O)/C=C/c1ccc(C)n1Cc1ccc(Cl)cc1Cl [Example 457, (2E)-3-[1-(2,4-dichlorobenzyl)-5-methyl-1H-pyrrol-2-yl]-N-(pentylsulfonyl)acrylamide]",189 to 190
4,"CCCCCS(=O)(=O)NC(=O)/C=C/c1c(C)cc(C)n1Cc1ccc(Cl)cc1Cl [Example 458, (2E)-3-[1-{2,4-dichlorobenzyl)-3,5-dimethyl-1H-pyrrol-2-yl]-N-(pentylsulfonyl)acrylamide]",170 to 171
5,"CCCCCS(=O)(=O)NC(=O)/C=C/c1ccc(OCCOC)cc1Oc1ncc(Br)cc1C [Example 460, (2E)-3-[2-[(5-bromo-3-methylpyridin-2-yl)oxy]-4-(2-methoxyethoxy)phenyl]-N-(pentylsulfonyl)acrylamide]",159.8 to 160.2
6,"CCCCCS(=O)(=O)NC(=O)/C=C/c1ccc(OCCOC)cc1Oc1ncc(NC(C)=O)cc1C [Example 463, (2E)-3-[2-{[5-(acetylamino)-3-methylpyridin-2-yl]oxy}-4-(2-methoxyethoxy)phenyl]-N-(pentylsulfonyl)acrylamide]",187.9 to 188.2
7,"CCOC(=O)c1cnc(Oc2cc(OCCOC)ccc2CCCOC(=O)NCC2CC2)c(Cl)c1 [Example 465, ethyl 5-chloro-6-[2-[3-({[(cyclopropylmethyl)amino]carbonyl}oxy)propyl]-5-(2-methoxyethoxy)phenoxy]nicotinate]",94.6 to 94.8
8,"CCCCCS(=O)(=O)NC(=O)/C=C/c1ccc(OCCOC)cc1Oc1ncc(-c2ccccc2)cc1C [Example 467, (2E)-3-{4-(2-methoxyethoxy)-2-[(3-methyl-5-phenylpyridin-2-yl)oxy]phenyl}-N-(pentylsulfonyl)acrylamide]",132.8 to 133.5
9,"C/C(=C\c1ccc(OC(C)C)cc1Oc1ncc(C(F)(F)F)cc1Cl)C(=O)NS(=O)(=O)NCc1cnc(C)cn1 [Example 470, (2E)-3-(2-{[3-chloro-5-(trifluoromethyl)pyridin-2-yl]oxy}-4-isopropoxyphenyl)-2-methyl-N-({[(5-methylpyrazin-2-yl)methyl]amino}sulfonyl)acrylamide]",126 to 128
10,"CCCCOc1ccc(CCCOC(=O)NS(=O)(=O)NCCOC(C)C)c(Oc2ncc(C(F)(F)F)cc2Cl)c1 [Example 473, 3-(4-butoxy-2-{[3-chloro-5-(trifluoromethyl)pyridin-2-yl]oxy}phenyl)propyl {[(2-isopropoxyethyl)amino]sulfonyl}carbamate]",91.4 to 91.6

# Results, then the compound that gave them:
row,melting point [°C],SMILES
1,146 to 147.5,"COCCOc1ccc(/C=C/C(=O)NS(=O)(=O)CC(F)(F)F)c(Oc2ncc(C(F)(F)F)cc2Cl)c1 [Example 246, (2E)-3-[2-{[3-chloro-5-(trifluoromethyl)pyridin-2-yl]oxy}-4-(2-methoxyethoxy)phenyl]-N-[(2,2,2-trifluoroethyl)sulfonyl]acrylamide]"
2,103 to 105,"CCCCCS(=O)(=O)NC(=O)/C=C/c1ccc(OCCCOCCOC)cc1Oc1ncc(C(F)(F)F)cc1Cl [Example 254, (2E)-3-{2-{[3-chloro-5-(trifluoromethyl)pyridin-2-yl]oxy}-4-[3-(2-methoxyethoxy)propoxy]phenyl}-N-(pentylsulfonyl)acrylamide]"
3,96.5 to 97.5,"CCCCCS(=O)(=O)NC(=O)CCc1ccc(OCCC2(C)OCCO2)cc1Oc1ncc(C(F)(F)F)cc1Cl [Example 425, 3-{2-{[3-chloro-5-(trifluoromethyl)pyridin-2-yl]oxy}-4-[2-(2-methyl-1,3-dioxolan-2-yl)ethoxy]phenyl}-N-(pentylsulfonyl)propanamide]"
4,153.2 to 153.8,"COCCOc1ccc(CCCOC(=O)NS(N)(=O)=O)c(Oc2ncc(Cl)cc2Cl)c1 [Example 426, 3-[2-[(3,5-dichloropyridin-2-yl)oxy]-4-(2-methoxyethoxy)phenyl]propyl (aminosulfonyl)carbamate]"
5,87.9 to 89,"COCCCNS(=O)(=O)NC(=O)OCCCc1ccc(OCCOC)cc1Oc1ncc(Cl)cc1Cl [Example 428, 3-[2-[(3,5-dichloropyridin-2-yl)oxy]-4-(2-methoxyethoxy)phenyl]propyl {[(3-methoxypropyl)amino]sulfonyl}carbamate]"
6,98 to 100,"COCCCNS(=O)(=O)NC(=O)OC/C=C/c1ccc(OCCOC)cc1Oc1ncc(C(F)(F)F)cc1Cl [Example 432, (2E)-3-[2-{[3-chloro-5-(trifluoromethyl)pyridin-2-yl]oxy}-4-(2-methoxyethoxy)phenyl]prop-2-en-1-yl {[(3-methoxypropyl)amino]sulfonyl}carbamate]"
7,154 to 156,"COCCOc1ccc(/C=C/COC(=O)NS(=O)(=O)NCCN2CCCC2)c(Oc2ncc(C(F)(F)F)cc2Cl)c1 [Example 434, (2E)-3-[2-{[3-chloro-5-(trifluoromethyl)pyridin-2-yl]oxy}-4-(2-methoxyethoxy)phenyl]prop-2-en-1-yl {[(2-pyrrolidin-1-ylethyl)amino]sulfonyl}carbamate]"
8,113 to 114,"COCCOc1ccc(/C=C/COC(=O)NS(=O)(=O)NCCc2ccccc2)c(Oc2ncc(C(F)(F)F)cc2Cl)c1 [Example 435, (2E)-3-[2-{[3-chloro-5-(trifluoromethyl)pyridin-2-yl]oxy}-4-(2-methoxyethoxy)phenyl]prop-2-en-1-yl {[(2-phenylethyl)amino]sulfonyl}carbamate]"
9,101 to 103,"CCCCCS(=O)(=O)NC(=O)/C=C/c1ccc(OCC(COC(C)C)OC(C)=O)cc1Oc1ncc(C(F)(F)F)cc1Cl (centres unmarked) [Example 455, 2-(3-{[3-chloro-5-(trifluoromethyl)pyridin-2-yl]oxy}-4-{(1E)-3-oxo-3-[(pentylsulfonyl)amino]prop-1-en-1-yl}phenoxy)-1-(isopropoxymethyl)ethyl acetate]"
10,86 to 88,"CCCCCS(=O)(=O)NC(=O)/C=C/c1ccc(OCC(O)COC(C)C)cc1Oc1ncc(C(F)(F)F)cc1Cl (centres unmarked) [Example 456, (2E)-3-[2-{[3-chloro-5-(trifluoromethyl)pyridin-2-yl]oxy}-4-(2-hydroxy-3-isopropoxypropoxy)phenyl]-N-(pentylsulfonyl)acrylamide]"
11,121 to 123,"C/C(=C\c1ccc(OC(C)C)cc1Oc1ncc(C(F)(F)F)cc1Cl)C(=O)NS(=O)(=O)NCCc1ccccn1 [Example 471, (2E)-3-(2-{[3-chloro-5-(trifluoromethyl)pyridin-2-yl]oxy}-4-isopropoxyphenyl)-2-methyl-N-{[(2-pyridin-2-ylethyl)amino]sulfonyl}acrylamide]"
12,67.4 to 68,"COCCCOc1ccc(CCCOC(=O)NS(=O)(=O)NCCOC(C)C)c(Oc2ncc(C(F)(F)F)cc2Cl)c1 [Example 474, 3-[2-{[3-chloro-5-(trifluoromethyl)pyridin-2-yl]oxy}-4-(3-methoxypropoxy)phenyl]propyl {[(2-isopropoxyethyl)amino]sulfonyl}carbamate]"
13,111.1 to 113,"C=CCCOc1ccc(CCCOC(=O)NS(=O)(=O)NCCOC(C)C)c(Oc2ncc(C(F)(F)F)cc2Cl)c1 [Example 475, 3-(4-(but-3-en-1-yloxy)-2-{[3-chloro-5-(trifluoromethyl)pyridin-2-yl]oxy}phenyl)propyl {[(2-isopropoxyethyl)amino]sulfonyl}carbamate]"
14,118 to 119.8,"CC(C)OCCNS(=O)(=O)NC(=O)OCCCc1ccc(OCc2ccco2)cc1Oc1ncc(C(F)(F)F)cc1Cl [Example 476, 3-[2-{[3-chloro-5-(trifluoromethyl)pyridin-2-yl]oxy}-4-(2-furylmethoxy)phenyl]propyl {[(2-isopropoxyethyl)amino]sulfonyl}carbamate]"

# System: KKAy mice
# Assay: Blood glucose and blood lipid (triglyceride) lowering action in mice
# Assay type: in vivo
# Settings: Mus musculus, 4TO7, po, 0.03% in powder diet, 4 to 7 days, plasma glucose relative to non-administration group = 100%, read-out: hypoglycemic action (%)
# Description: The test compound was mixed with a powder diet (CE-2, CLEA JAPAN, INC.) at a proportion of 0.01% (0.03% for the compounds of Examples 1, 2, 12, 81, 94, 96, 129 and 143, and 0.005% for the compounds of Examples 28, 30 and 37) and freely given to KKAy mice (9 to 14-week-old, 5 mice per group) which are obesity non-insulin-dependent diabetes (type-2 diabetes) models, for 4 to 7 days. During this period, water was freely given. The blood was drawn from the orbital venous plexus. Glucose and triglyceride in the plasma separated from the blood were quantitated using L Type Wako Glu2 (Wako Pure Chemical Industries, Ltd.) and L Type Wako TG·H (Wako Pure Chemical Industries, Ltd.), respectively, according to an enzyme method.
row,SMILES,response vs control in vivo at 0.03 % [%]
1,"CCCCCS(=O)(=O)NC(=O)CCc1cc(OC(C)C)nn1Cc1ccc(C(F)(F)F)cc1Cl [Example 143, 3-{1-[2-chloro-4-(trifluoromethyl)benzyl]-3-isopropoxy-1H-pyrazol-5-yl}-N-(pentylsulfonyl)propanamide]",47

# Same assay, conditions: Mus musculus, 4TO7, po, 0.03% in powder diet, 4 to 7 days, plasma triglyceride relative to non-administration group = 100%, read-out: hypolipidemic action (%)
row,SMILES,response vs control in vivo at 0.03 % [%]
1,"CCCCCS(=O)(=O)NC(=O)CCc1cc(OC(C)C)nn1Cc1ccc(C(F)(F)F)cc1Cl [Example 143, 3-{1-[2-chloro-4-(trifluoromethyl)benzyl]-3-isopropoxy-1H-pyrazol-5-yl}-N-(pentylsulfonyl)propanamide]",76
